Source: article PMC8421423, “Cellular model system to dissect the isoform-selectivity of Akt inhibitors” (Nature Communications, 2021)
“And” between values parts separate entries of the source, which are not always exact repeats. Equal entries are not always repeated. Where two headings read alike, the source gives them in different places.

Experiments:
Ba/F3^myr-Akt3 cells = assay: CellTiter-Glo cell viability assay; details: for Log ratio EC50 [Akt] / EC50 [Akt], Akt3 / Akt2: cell viability assay Ba/F3 myr-Akt cells, log units
Akt2 [1] = molecular target: T1, Akt2 (Homo sapiens, UniProt P31751); assay: PhosphoSens continuous fluorometric kinetic enzyme assay
T1 sequence (P31751 whole entry): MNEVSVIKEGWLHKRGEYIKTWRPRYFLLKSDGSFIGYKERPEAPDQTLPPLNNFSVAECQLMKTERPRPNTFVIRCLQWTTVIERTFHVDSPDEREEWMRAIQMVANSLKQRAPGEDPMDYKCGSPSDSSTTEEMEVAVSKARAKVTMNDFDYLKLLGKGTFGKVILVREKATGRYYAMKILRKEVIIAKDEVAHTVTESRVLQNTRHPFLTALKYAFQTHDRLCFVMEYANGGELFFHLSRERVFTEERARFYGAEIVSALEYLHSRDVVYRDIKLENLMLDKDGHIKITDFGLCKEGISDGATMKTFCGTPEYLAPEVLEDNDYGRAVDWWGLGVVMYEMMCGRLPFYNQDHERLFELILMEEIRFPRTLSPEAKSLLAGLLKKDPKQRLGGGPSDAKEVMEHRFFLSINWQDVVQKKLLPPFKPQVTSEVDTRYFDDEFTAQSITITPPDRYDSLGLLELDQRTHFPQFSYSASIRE
Method: By addition of either 8 nM Akt1, 2 nM Akt2, or 5 nM Akt3 (final concentrations) the reactions were initiated. […] Afterwards the kobs-values were plotted versus the inhibitor concentrations [I] and then fit to the following hyperbolic Eq.

Ba/F3^myr-Akt2 cells = assay: CellTiter-Glo cell viability assay
Ba/F3^myr-Akt1 cells = assay: CellTiter-Glo cell viability assay; details: for Log ratio EC50 [Akt] / EC50 [Akt], Akt1 / Akt2: cell viability assay Ba/F3 myr-Akt cells, log units
Akt1 = Akt1 (Homo sapiens, UniProt P31749); assay: STK HTRF KinEASE activity-based assay (IC50); details: for Log ratio IC50 [Akt] / IC50 [Akt], Akt1 / Akt2: biochemical activity based assay, log units
Akt1, sequence (P31749 whole entry): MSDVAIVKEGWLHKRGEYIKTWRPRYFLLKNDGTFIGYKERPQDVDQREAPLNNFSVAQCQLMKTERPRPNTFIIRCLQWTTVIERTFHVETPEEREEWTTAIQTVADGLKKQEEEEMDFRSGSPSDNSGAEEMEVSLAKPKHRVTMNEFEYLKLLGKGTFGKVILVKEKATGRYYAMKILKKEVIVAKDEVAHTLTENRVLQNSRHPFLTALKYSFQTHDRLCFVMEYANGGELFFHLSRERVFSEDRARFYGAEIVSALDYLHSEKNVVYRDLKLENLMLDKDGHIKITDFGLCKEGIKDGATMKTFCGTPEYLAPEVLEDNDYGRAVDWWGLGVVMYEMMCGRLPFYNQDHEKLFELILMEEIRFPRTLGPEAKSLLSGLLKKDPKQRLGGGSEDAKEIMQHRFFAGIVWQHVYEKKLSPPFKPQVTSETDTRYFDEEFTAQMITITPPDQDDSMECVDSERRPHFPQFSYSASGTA

parental Ba/F3 cells = assay: CellTiter-Glo cell viability assay; format: cell-based, murine
Akt2 [2] = molecular target: T1, Akt2; assay: STK HTRF KinEASE activity-based assay (IC50)
Akt3 = Akt3 (Homo sapiens, UniProt Q9Y243); assay: STK HTRF KinEASE activity-based assay (IC50)
Akt3, sequence (Q9Y243 whole entry): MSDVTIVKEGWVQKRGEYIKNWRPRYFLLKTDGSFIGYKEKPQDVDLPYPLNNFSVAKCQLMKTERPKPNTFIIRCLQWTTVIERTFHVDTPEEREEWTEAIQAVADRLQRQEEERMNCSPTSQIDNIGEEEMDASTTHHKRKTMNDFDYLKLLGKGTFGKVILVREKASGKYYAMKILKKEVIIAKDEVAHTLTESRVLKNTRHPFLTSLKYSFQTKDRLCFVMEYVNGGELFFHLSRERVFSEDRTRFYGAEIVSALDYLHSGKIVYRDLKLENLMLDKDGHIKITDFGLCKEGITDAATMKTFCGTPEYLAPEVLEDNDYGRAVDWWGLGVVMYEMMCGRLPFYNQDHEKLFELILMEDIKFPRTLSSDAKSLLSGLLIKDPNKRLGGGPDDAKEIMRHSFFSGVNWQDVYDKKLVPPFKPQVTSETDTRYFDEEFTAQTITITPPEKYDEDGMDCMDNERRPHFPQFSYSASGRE

[3] = Mus musculus, read-out: CTG BaF3myr-Akt3, Mean, mean of replicates
[4] = Mus musculus, read-out: CTG BaF3myr-Akt3, individual determinations, single replicates
[5] = read-out: CTG BaF3myr-Akt3, individual determinations, single replicates
[6] = Mus musculus, read-out: CTG BaF3myr-Akt2, Mean, mean of replicates
[7] = read-out: CTG BaF3myr-Akt2, individual determinations, single replicates
[8] = Mus musculus, read-out: CTG BaF3myr-Akt1, individual determinations, single replicates
[9] = read-out: CTG BaF3myr-Akt1, individual determinations, single replicates
[10] = HTRF IC50 Akt1, Mean, mean of replicates
[11] = HTRF IC50 Akt1, individual determinations, single replicates
[12] = IC50 Akt1, HTRF, ATP at KM, 1 h preincubation
[13] = Mus musculus, BaF3, parental cells, single replicates, read-out: CTG BaF3, individual determinations
[14] = parental cells, single replicates, read-out: CTG BaF3, individual determinations
[15] = HTRF IC50 Akt2, individual determinations, single replicates
[16] = IC50 Akt2, HTRF, ATP at KM, 1 h preincubation
[17] = HTRF IC50 Akt3, individual determinations, single replicates
[18] = IC50 Akt3, HTRF, ATP at KM, 1 h preincubation

## C=CC(=O)Nc1ccc2[nH]c(=O)n(C3CCN(Cc4ccc(-c5ncc(C(=O)NCC(C)C)cc5-c5ccccc5)cc4)CC3)c2c1 [compound 10]
Ba/F3^myr-Akt3 cells; [3]
  EC50: 24.3 µM
Ba/F3^myr-Akt3 cells; [4]
  EC50: 25.3 µM
Ba/F3^myr-Akt3 cells
  Log ratio EC50 [Akt] / EC50 [Akt], Akt3 / Akt2: -0.48
Ba/F3^myr-Akt3 cells; [5]
  EC50: 25.7 µM and 21.8 µM
Akt2 [1]; Ki Akt2
  Ki: 4 ± 1 nM
Akt2 [1]; Ki Akt2, Mean, mean of replicates
  Ki: 4.18 nM
Akt2 [1]; Ki Akt2, individual determinations, single replicates
  Ki: 5.1 nM and 4.1 nM and 3.3 nM
Akt2 [1]; read-out: kinact /Ki Akt2
  kinact/KI: 25000 ± 5000 M⁻¹ s⁻¹
Akt2 [1]; read-out: kinact /Ki Akt2, individual determinations, single replicates
  kinact/KI: 27000 M⁻¹ s⁻¹
Akt2 [1]; read-out: kinact Akt2
  kinact: 0.0001 s⁻¹
Akt2 [1]; read-out: kinact Akt2, Mean, mean of replicates
  kinact: 0.0001 s⁻¹
Akt2 [1]; read-out: kinact Akt2, individual determinations, single replicates
  kinact: 0.000133 s⁻¹
Akt2 [1]; single replicates
  kinact Akt2, individual determinations: 0.00457 min⁻¹ and 0.006 min⁻¹
Ba/F3^myr-Akt2 cells; [6]
  EC50: 7.99 µM
Ba/F3^myr-Akt2 cells; Mus musculus, read-out: CTG BaF3myr-Akt2, individual determinations, single replicates
  EC50: 7.98 µM
Ba/F3^myr-Akt2 cells; [7]
  EC50: 5.41 µM and 9.28 µM
Ba/F3^myr-Akt1 cells; [8]
  EC50: > 30 µM
Ba/F3^myr-Akt1 cells
  Log ratio EC50 [Akt] / EC50 [Akt], Akt1 / Akt2: 0.52
Ba/F3^myr-Akt1 cells; [9]
  EC50: 28.8 µM and 21.1 µM
Akt1; [10]
  IC50: 1720 nM
Akt1; [11]
  IC50: 1890 nM and 1690 nM and 1560 nM
Akt1; [12]
  IC50: 1720 ± 166 nM
Akt1
  Log ratio IC50 [Akt] / IC50 [Akt], Akt1 / Akt2: 1.26
Parental Ba/F3 cells; [13]
  EC50: 15.3 µM
Parental Ba/F3 cells; [14]
  EC50: 19.4 µM and > 30 µM
Akt2 [2]; HTRF IC50 Akt2, Mean, mean of replicates
  IC50: 93.7 nM
Akt2 [2]; [15]
  IC50: 92.4 nM and 89.8 nM and 98.9 nM
Akt2 [2]; [16]
  IC50: 94 ± 4 nM
Akt3; HTRF IC50 Akt3, Mean, mean of replicates
  IC50: 1.56 µM
Akt3; [17]
  IC50: 1.65 µM and 1.47 µM and 1.57 µM
Akt3; [18]
  IC50: 1.56 ± 0.075 µM

## C=CC(=O)Nc1ccc2[nH]c(=O)n(C3CCN(Cc4ccc(-c5ncc(C(=O)O)cc5-c5ccccc5)cc4)CC3)c2c1 [compound 4]
Ba/F3^myr-Akt3 cells; CTG
  EC50 BaF3myr-Akt3: generally inactive
Ba/F3^myr-Akt3 cells
  Log ratio EC50 [Akt] / EC50 [Akt], Akt3 / Akt2: 0
Ba/F3^myr-Akt3 cells; read-out: CTG BaF3myr-Akt3, Mean, mean of replicates
  EC50: > 30 µM
Ba/F3^myr-Akt3 cells; [5]
  EC50: > 30 µM
Ba/F3^myr-Akt3 cells; read-out: EC50 BaF3myr-Akt3, CTG
  EC50: > 30 µM
Ba/F3^myr-Akt2 cells; CTG
  EC50 BaF3myr-Akt2: generally inactive
Ba/F3^myr-Akt2 cells; read-out: CTG BaF3myr-Akt2, Mean, mean of replicates
  EC50: > 30 µM
Ba/F3^myr-Akt2 cells; [7]
  EC50: > 30 µM
Ba/F3^myr-Akt2 cells; read-out: EC50 BaF3myr-Akt2, CTG
  EC50: > 30 µM
Ba/F3^myr-Akt1 cells; CTG
  EC50 BaF3myr-Akt1: generally inactive
Ba/F3^myr-Akt1 cells
  Log ratio EC50 [Akt] / EC50 [Akt], Akt1 / Akt2: 0
Ba/F3^myr-Akt1 cells; read-out: CTG BaF3myr-Akt1, Mean, mean of replicates
  EC50: > 30 µM
Ba/F3^myr-Akt1 cells; [9]
  EC50: > 30 µM
Ba/F3^myr-Akt1 cells; read-out: EC50 BaF3myr-Akt1, CTG
  EC50: > 30 µM
Akt1
  Log ratio IC50 [Akt] / IC50 [Akt], Akt1 / Akt2: -0.75
Akt1; read-out: HTRF IC50 Akt1, Mean, mean of replicates
  IC50: 44.3 nM
Akt1; read-out: HTRF IC50 Akt1, individual determinations, single replicates
  IC50: 45.5 nM and 22.1 nM and 65.3 nM
Akt1; read-out: IC50 Akt1, HTRF, ATP at KM, 1 h preincubation
  IC50: 44 ± 18 nM
Parental Ba/F3 cells; CTG, parental BaF3 cell line, read-out: EC50 BaF3
  EC50: > 30 µM
Parental Ba/F3 cells; parental cells, mean of replicates, read-out: CTG BaF3, Mean
  EC50: > 30 µM
Parental Ba/F3 cells; [14]
  EC50: > 30 µM
Akt2 [2]; read-out: HTRF IC50 Akt2, Mean, mean of replicates
  IC50: 248 nM
Akt2 [2]; read-out: HTRF IC50 Akt2, individual determinations, single replicates
  IC50: 189 nM and 309 nM and 245 nM
Akt2 [2]; read-out: IC50 Akt2, HTRF, ATP at KM, 1 h preincubation
  IC50: 248 ± 49 nM
Akt3; read-out: HTRF IC50 Akt3, individual determinations, single replicates
  IC50: 5.7 µM and 7.19 µM and 8.39 µM
Akt3; read-out: IC50 Akt3, HTRF, ATP at KM, 1 h preincubation
  IC50: 6.45 ± 0.742 µM

## C=CC(=O)Nc1ccc2[nH]c(=O)n(C3CCN(Cc4ccc(-c5ncc(Cc6ccc(C)o6)cc5-c5ccccc5)cc4)CC3)c2c1 [compound 15]
Ba/F3^myr-Akt3 cells; [3]
  EC50: 17.2 µM
Ba/F3^myr-Akt3 cells; [4]
  EC50: 15.7 µM
Ba/F3^myr-Akt3 cells
  Log ratio EC50 [Akt] / EC50 [Akt], Akt3 / Akt2: -0.08
Ba/F3^myr-Akt3 cells; [5]
  EC50: 18.6 µM and 17.2 µM
Ba/F3^myr-Akt2 cells; [6]
  EC50: 14.3 µM
Ba/F3^myr-Akt2 cells; [7]
  EC50: 11.5 µM and 13.9 µM and 23.9 µM and 7.94 µM
Ba/F3^myr-Akt1 cells; Mus musculus, read-out: CTG BaF3myr-Akt1, Mean, mean of replicates
  EC50: 26.7 µM
Ba/F3^myr-Akt1 cells; [8]
  EC50: 28 µM
Ba/F3^myr-Akt1 cells
  Log ratio EC50 [Akt] / EC50 [Akt], Akt1 / Akt2: 0.27
Ba/F3^myr-Akt1 cells; [9]
  EC50: 22.1 µM
Akt1; [10]
  IC50: 604 nM
Akt1; [11]
  IC50: 570 nM and 597 nM and 645 nM
Akt1; [12]
  IC50: 604 ± 31 nM
Akt1
  Log ratio IC50 [Akt] / IC50 [Akt], Akt1 / Akt2: -0.37
Parental Ba/F3 cells; [13]
  EC50: > 30 µM
Parental Ba/F3 cells; [14]
  EC50: > 30 µM and 25.7 µM
Akt2 [2]; [15]
  IC50: 1300 nM and 1340 nM and 1560 nM
Akt2 [2]; [16]
  IC50: 1400 ± 112 nM
Akt3; [17]
  IC50: 4.83 µM and 5.38 µM and 2.87 µM
Akt3; [18]
  IC50: 4.36 ± 1.08 µM
